The values that follow are results of earlier work, collected in US20150325856A1, “ENVIRONMENTALLY FRIENDLY INKJET-PRINTABLE LITHIUM BATTERY CATHODE FORMULATIONS, METHODS AND DEVICES” (NEW JERSEY INSTITUTE OF TECHNOLOGY, priority 2014, published 2015).

Like-named read-outs stand apart in the source and are kept apart here. Some results are limits rather than exact numbers.

Data set [1] concerns rats. Particulars: whole body exposure.
In data set [2] the test system is rats, mice, guinea-pigs and rabbits.
In data set [3] the test system is rabbits.
Data set [4] deals with rats. The conditions noted are these: heads only.
Data set [5] relates to rabbits. The conditions noted are these: Ansell and Fowler, as cited in WHO 2001.

With `CN1CCCC1=O` [NMP, N-methyl-pyrrolidone], the “Inhalation LC50” value in the data set with rats [1] was “(1700 mg/m^3)”; with rats [1] (E. I. DuPont de Nemours & Co. 1977, as cited in WHO 2001) it was “=1.7 mg/L”; with rats [4], “(5100 mg/m^3)”; in the data set with rats [4] (BASF, 1988, as cited in WHO 2001), over 5.1 µg/mL. The “Tox. Cat. (dermal LD50)” value in the data set on rats and rabbits (dermal) is given as “(Tox. Cat. III-IV)”. Moreover, the “Dermal LD50” value in the data set on rats and rabbits (rats and rabbits, Bartsch et al., as cited in WHO 2001, Wallen 1992) was 4000-10,000 mg/kg. In data set [2] (oral), the “Tox. Cat. (oral LD50)” value is “(Tox. Cat. III-IV)”. For the same molecule, the “Oral LD50” value in data set [2] (rats, mice, guinea-pigs and rabbits, Ansell and Fowler, 1988, as cited in WHO 2001) is 3900 to 7900 mg/kg. The “Primary Eye Irritation, recovery” value in the data set on rabbits [3] is “recovered after 21 days post dosing”. Besides, in the data set on rabbits [3] (causing corneal opacity, iritis and conjunctivitis, Ansell and Fowler, as cited in WHO 2001), the “Primary Eye Irritation” value is recorded as “Moderate (causing”. For the same molecule, the “Primary Skin Irritation” value in the data set with rabbits [5] was “Practically non-”.
